Assay type in all cases: functional, cell-based; call rule not given here
One assay has as its system HL-60. In words: Cytotoxicity against human HL-60 cells assessed as reduction in cell viability measured after 72 hrs by CCK8 assay. (In general: Tetrazolium assays rely on reduction of a dye to a coloured formazan, in cell work by metabolically active cells.)
For another assay, the system named is HeLa. In words: Cytotoxicity against human HeLa cells assessed as reduction in cell viability measured after 72 hrs by CCK8 assay.
For another assay, the system named is A549. The experiment in a line: Cytotoxicity against human A549 cells assessed as reduction in cell viability measured after 72 hrs by CCK8 assay.
The next assay deals with HT-29. The experiment in a line: Cytotoxicity against human HT-29 cells assessed as reduction in cell viability measured after 72 hrs by CCK8 assay.
The next assay relates to MCF7. The experiment in a line: Cytotoxicity against human MCF7 cells assessed as reduction in cell viability measured after 72 hrs by CCK8 assay.
The subject of a further assay is U-937. The experiment in a line: Cytotoxicity against human U-937 cells assessed as reduction in cell viability measured after 72 hrs by CCK8 assay.
In another assay the test system is K562. The experiment in a line: Cytotoxicity against human K562 cells assessed as reduction in cell viability measured after 72 hrs by CCK8 assay.
Another assay relates to DU-145. In words: Cytotoxicity against human DU-145 cells assessed as reduction in cell viability measured after 72 hrs by CCK8 assay.
Where [1] appears, read: Homo sapiens, HL-60, 72 h, read-out: IC50.
[2] abbreviates: Homo sapiens, HeLa, 72 h, read-out: IC50.
Setting [3] is: Homo sapiens, A549, 72 h, read-out: IC50.
[4] abbreviates: Homo sapiens, HT-29, 72 h, read-out: IC50.
Where [5] appears, read: Homo sapiens, MCF7, 72 h, read-out: IC50.
[6] abbreviates: Homo sapiens, U-937, 72 h, read-out: IC50.
Setting [7] is: Homo sapiens, K562, 72 h, read-out: IC50.
[8] abbreviates: Homo sapiens, DU-145, 72 h, read-out: IC50.

Molecules are shown by their SMILES.

By IC50 is commonly meant the midpoint of a concentration-inhibition curve. Take `C=CCn1c(=O)/c(=C/CCCCCCCCCCCCCCC)[nH]c(=O)/c1=C/c1cccc(OC)c1`: the IC50 result in the assay with HL-60 (hl-60), with HeLa (hela), in the assay with A549 (a549), with HT-29 (ht-29), in the assay with MCF7 (mcf7) and with U-937 (u-937) was “Not Active” throughout. Also, the IC50 result in the assay on K562 (k562) and in the assay with DU-145 (du-145) was “Not Active” throughout.

As for `C=CCn1c(=O)/c(=C/CCCCC)[nH]c(=O)/c1=C/c1ccccc1OC`, the IC50 turned out to be 13.4 µM with HL-60 (setting [1]); 5.7 µM in the assay with HeLa (setting [2]); 8.7 µM in the assay on A549 (setting [3]); 7.4 µM with HT-29 (setting [4]); 6.9 µM in the assay on MCF7 (setting [5]); 1.9 µM in the assay with U-937 (setting [6]). Also, the results for the IC50 in the assay with K562 (setting [7]) and in the assay on DU-145 (setting [8]) were 2.6 µM and 10.7 µM, respectively.

As for `C=CCn1c(=O)/c(=C/CCCCCC)[nH]c(=O)/c1=C/c1ccccc1OC`, the IC50 in the assay on HL-60 (setting [1]) came to 10.6 µM; with HeLa (setting [2]) it was 7 µM; with A549 (setting [3]), 13.9 µM; with HT-29 (setting [4]), 9.8 µM; in the assay on MCF7 (setting [5]) it was 9.3 µM; with U-937 (setting [6]), 2.6 µM. Besides, the IC50 in the assay on K562 (setting [7]) was found to be 3.6 µM; in the assay on DU-145 (setting [8]) it was 11.2 µM.

`C=CCn1c(=O)/c(=C/CCCC)[nH]c(=O)/c1=C/c1cccc(OC)c1`: the IC50 entry in the assay on HL-60 (hl-60), with HeLa (hela), with A549 (a549), with HT-29 (ht-29), in the assay on MCF7 (mcf7) and in the assay with U-937 (u-937) was “Not Active” in each case. Besides, the IC50 result in the assay on K562 (k562) and in the assay with DU-145 (du-145) was “Not Active” each time.

Turning to `C=CCn1c(=O)/c(=C/CCCCCCCCC)[nH]c(=O)/c1=C/c1cccc(OC)c1`, the 50% inhibitory concentration (IC50) entry in the assay with HL-60 (hl-60), in the assay with HeLa (hela), in the assay with A549 (a549), in the assay on HT-29 (ht-29), in the assay with MCF7 (mcf7) and in the assay with U-937 (u-937) was “Not Active” each time. The IC50 entry in the assay on K562 (k562) and with DU-145 (du-145) was “Not Active” each time.

Regarding `C=CCn1c(=O)/c(=C/CCCCCCC)[nH]c(=O)/c1=C/c1ccc(OC)cc1`, the IC50 in the assay on HL-60 (setting [1]) is 28.2 µM; with HeLa (setting [2]) it was 2.3 µM; with A549 (setting [3]), 2.9 µM; with HT-29 (setting [4]), 2.2 µM; in the assay with MCF7 (setting [5]), 2.8 µM; with U-937 (setting [6]), 1.1 µM. Besides, the IC50 in the assay on K562 (setting [7]) was 1.5 µM; in the assay on DU-145 (setting [8]), 2.9 µM.

For `C=CCn1c(=O)/c(=C/CCCCCCCCCCC)[nH]c(=O)/c1=C/c1ccccc1OC`, the IC50 result with HL-60 (hl-60), in the assay with HeLa (hela), in the assay with A549 (a549), with HT-29 (ht-29), with MCF7 (mcf7) and in the assay with U-937 (u-937) was “Not Active” throughout. Further, the IC50 result in the assay on K562 (k562) and with DU-145 (du-145) was “Not Active” throughout.

Turning to `C=CCn1c(=O)/c(=C/CC)[nH]c(=O)/c1=C/c1cccc(OC)c1`, the IC50 entry in the assay on HL-60 (hl-60), with HeLa (hela), in the assay with A549 (a549), in the assay with HT-29 (ht-29), with MCF7 (mcf7) and with U-937 (u-937) was “Not Active” each time. In addition, the IC50 result in the assay with K562 (k562) and in the assay with DU-145 (du-145) was “Not Active” each time.

As to `C=CCn1c(=O)/c(=C/c2cccc(Cl)c2Cl)[nH]c(=O)/c1=C/c1ccccc1OC`, the IC50 in the assay with HL-60 (setting [1]) was found to be 2 µM; in the assay with HeLa (setting [2]), 1.6 µM; with A549 (setting [3]), 2.3 µM; in the assay with HT-29 (setting [4]), 3.2 µM; in the assay on MCF7 (setting [5]), 2.1 µM; in the assay with U-937 (setting [6]), 0.5 µM. Further, the IC50 in the assay on K562 (setting [7]) worked out at 0.9 µM; in the assay with DU-145 (setting [8]), 4.2 µM.

The values are drawn from ChEMBL document CHEMBL4715742, “Design, synthesis and cytotoxic activities of novel 2,5-diketopiperazine derivatives” (Eur J Med Chem, 2016).
